Reference: patent US9409893B2, “Heteroaryl derivatives and uses thereof” (Jacobus Pharmaceutical Company, Inc., priority 2012, dated 2016)

Target: hERG potassium channel (Homo sapiens, UniProt Q12809)
Experiment: Whole cell patch clamp of cloned hERG potassium channels expressed in HEK293 cells
Format: cell-based
Conditions: for IC50: patch clamp, read-out: IC50 for the inhibitory effect on hERG potassium current
Description: For in vitro testing, the functional hERG assay using conventional patch clamp electrophysiology is considered the gold standard for assessment of drug interactions with the hERG potassium channel (Yao et al., Br. J. Pharmacol. 2008, 154, 1446-1456). In this assay, hERG channels are expressed in a human embryonic kidney (HEK293) cell line that lacks endogenous IKr.
The objective of this study was to examine the in vitro effects of test articles on the hERG (human ether-à-go-go-related gene) potassium channel current (a surrogate for IKr, the rapidly activating delayed rectifier cardiac potassium current).
All chemicals used in solution preparation were purchased from Sigma-Aldrich (St. Louis, Mo.) unless otherwise noted and were of ACS reagent grade purity or higher. Stock solutions of the test article and the positive control were prepared in dimethyl sulfoxide (DMSO) and stored frozen. Test article and positive control concentrations were prepared fresh daily by diluting stock solutions into a HEPES-buffered physiological saline (HB-PS) solution (composition in mM): NaCl, 137; KCl, 4.0; CaCl2, 1.8; MgCl2, 1; HEPES, 10; Glucose, 10; pH adjusted to 7.4 with NaOH (prepared weekly and refrigerated until use).
HEK/hERG • Organism: Homo sapiens • Designation: 293 • Tissue: Kidney; Transformed with adenovirus 5 DNA; Transfected with human-ether-a-go-go cDNA • Morphology: Epithelial • Age Stage Embryo • Source Strain: ATCC, Manassas, Va. • Source Substrain ChanTest Corporation, Cleveland, Ohio
HEK293 cells were stably transfected with hERG cDNA. Stable transfectants were selected by coexpression with the G418-resistance gene incorporated into the expression plasmid. Selection pressure was maintained by including G418 in the culture medium. Cells were cultured in Dulbecco's Modified Eagle Medium/Nutrient Mixture F-12 (D-MEM/F-12) supplemented with 10% fetal bovine serum, 100 U/mL penicillin G sodium, 100 μg/mL streptomycin sulfate and 500 μg/mL G418.
All experiments were performed at room temperature. Each cell acted as its own control.
Experiments were performed as outlined in the section entitled Experimental Procedures. Concentrations were selected to evaluate the concentration-response relationship of each test article based on the initial results or the solubility limits in vehicle. Each concentration was tested in at least three cells (n≧3).
Cells were transferred to the recording chamber and superfused with vehicle control solution. Micropipette solution for whole cell patch clamp recordings was composed of (mM): potassium aspartate, 130; MgCl2, 5; EGTA, 5; ATP, 4; HEPES, 10; pH adjusted to 7.2 with KOH. Pipette solution was prepared in batches, aliquoted, stored frozen, and a fresh aliquot was thawed each day. Patch pipettes were made from glass capillary tubing using a P-97 micropipette puller (Sutter Instruments, Novato, Calif.). A commercial patch clamp amplifier was used for whole cell recordings. Before digitization, current records were low-pass filtered at one-fifth of the sampling frequency.
Onset and steady state inhibition of hERG current was measured using a pulse pattern with fixed amplitudes (conditioning prepulse: +20 mV for 2 s; test pulse: −50 mV for 2 s) repeated at 10 s intervals, from a holding potential of −80 mV. Peak tail current was measured during the 2 s step to −50 mV.
Each test article at 10 μM was applied to at least 3 cells (n≧3).
One or more test article concentrations were applied sequentially (without washout between test substance concentrations) in ascending order, to each cell (n≧3). A steady state was maintained for at least 30 s before applying test article or positive control. Peak current was measured until a new steady state was achieved.
Steady state was defined by the limiting constant rate of change with time (linear time dependence). The steady state before and after test article application was used to calculate the percentage of current inhibited at each concentration. […]

[1] = human, HEK293 cells stably expressing hERG, pH 7.4, HEK293/hERG, room temperature, read-out: Mean percentage of hERG current inhibited

Chain of hERG potassium channel (Q12809 whole entry): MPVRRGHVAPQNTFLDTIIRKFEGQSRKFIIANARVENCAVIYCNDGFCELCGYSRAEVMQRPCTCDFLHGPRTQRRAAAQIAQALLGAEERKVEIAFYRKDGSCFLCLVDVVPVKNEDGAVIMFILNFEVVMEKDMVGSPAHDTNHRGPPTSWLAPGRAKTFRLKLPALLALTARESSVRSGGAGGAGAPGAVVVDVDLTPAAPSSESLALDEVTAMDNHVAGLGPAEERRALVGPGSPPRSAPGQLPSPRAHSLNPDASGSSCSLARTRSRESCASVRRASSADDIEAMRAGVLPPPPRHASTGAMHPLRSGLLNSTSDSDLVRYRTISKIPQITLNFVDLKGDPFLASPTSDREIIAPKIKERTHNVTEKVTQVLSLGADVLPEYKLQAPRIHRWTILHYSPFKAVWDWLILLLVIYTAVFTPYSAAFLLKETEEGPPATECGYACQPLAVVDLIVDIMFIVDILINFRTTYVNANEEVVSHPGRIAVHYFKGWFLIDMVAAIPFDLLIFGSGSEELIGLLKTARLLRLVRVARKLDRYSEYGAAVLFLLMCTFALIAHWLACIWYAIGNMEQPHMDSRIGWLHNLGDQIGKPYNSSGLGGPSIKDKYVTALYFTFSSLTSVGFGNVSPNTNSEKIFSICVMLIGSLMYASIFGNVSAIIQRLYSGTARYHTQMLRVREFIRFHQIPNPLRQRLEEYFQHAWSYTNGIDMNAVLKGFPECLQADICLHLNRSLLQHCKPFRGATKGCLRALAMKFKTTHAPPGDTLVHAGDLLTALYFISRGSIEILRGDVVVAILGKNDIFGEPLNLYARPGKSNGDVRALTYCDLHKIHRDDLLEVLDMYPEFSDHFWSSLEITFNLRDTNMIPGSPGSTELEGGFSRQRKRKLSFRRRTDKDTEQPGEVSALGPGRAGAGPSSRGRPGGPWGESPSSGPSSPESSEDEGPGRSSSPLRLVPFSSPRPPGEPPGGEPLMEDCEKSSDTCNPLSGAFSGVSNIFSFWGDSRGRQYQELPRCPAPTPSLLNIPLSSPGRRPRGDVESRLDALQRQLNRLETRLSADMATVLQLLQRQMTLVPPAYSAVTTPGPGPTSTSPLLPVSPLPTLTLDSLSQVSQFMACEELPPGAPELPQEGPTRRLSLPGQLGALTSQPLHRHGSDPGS

Compound | IC50 (HEK293/hERG) | Hill coefficient of hERG inhibition (fit of concentration-response data) | inhibition at 3 µM [1] | inhibition at 10 µM [1] | inhibition at 30 µM [1] | inhibition at 100 µM (human, HEK293 cells stably expressing hERG, pH 7.4, 100 μM, HEK293/hERG, room temperature, read-out: Mean percentage of hERG current inhibited) | inhibition at 1 µM (human, HEK293 cells stably expressing hERG, pH 7.4, 1 μM, HEK293/hERG, room temperature, read-out: Mean percentage of hERG current inhibited)
CC(C)(C)NCc1cc(C(C)(C)C)cc(-c2ccc(C(F)(F)F)nc2)c1O.Cl [Example 1, 4-(tert-Butyl)-2-((tert-butylamino)methyl)-6-(6-(trifluoromethyl)pyridin-3-yl)phenol hydrochloride] | 9.8 µM | 1.4 | 18.4% | 48.5% | 84% | 98.2% | 
CC(C)(C)NCc1cc(C(C)(C)C)cc(-c2cnc(C(F)(F)F)nc2)c1O.Cl [Example 33, 4-(tert-Butyl)-2-((tert-butylamino)methyl)-6-(2-(trifluoromethyl)pyrimidin-5-yl)phenol hydrochloride] | > 10 µM |  | 4.1% | 12.9% | 24.3% |  | 
CC(C)(C)NCc1cc(C(C)(C)C)cc(-c2cnc(C(F)(F)F)c(F)c2)c1O.Cl [Example 34, 4-(tert-Butyl)-2-((tert-butylamino)methyl)-6-(5-fluoro-6-(trifluoromethyl)pyridin-3-yl)phenol hydrochloride] | > 10 µM |  | 11.3% | 15.9% |  |  | 2.6%
